Results taken from patent publication US10864178B2, “Pharmaceutical composition for treatment of cancer containing polyphenol compound as active ingredient” (priority 2016, dated 2020).

Columns and labels:
AGS [1] = experiment: Proliferation inhibition, sulforhodamine B assay; format: cell-based; conditions: Homo sapiens, 48 hours treatment
Description: (§1) In order to examine the proliferation inhibitory effects of gossypol against stomach cancer cell lines, 6 different stomach cancer cell lines (MKN28, MKN45, AGS, SNU668, Kato3 and HS746T) were prepared. The definition of cell lines known in the Korean Cell Line Bank or the American Type Culture Collection (ATCC) is described in Table 1 below.
(§2) Each of the 6 different cell lines (1×10^3 to 1×10^4 cells/well) was cultured in a 96-well plate for 24 hours, and treated with 0, 10, 20, 40 or 60 μM of gossypol, and then further cultured for 48 hours.

HS746T [2] = experiment: Proliferation inhibition, sulforhodamine B assay; format: cell-based; conditions: Homo sapiens, 48 hours treatment
Description: as §1, §2

Kato3 = experiment: Proliferation inhibition, sulforhodamine B assay; format: cell-based; conditions: Homo sapiens, 48 hours treatment
Description: as §1, §2

MKN28 [3] = experiment: Proliferation inhibition, sulforhodamine B assay; format: cell-based; conditions: Homo sapiens, MKN-28, 48 hours treatment
Description: as §1, §2

MKN45 [4] = experiment: Proliferation inhibition, sulforhodamine B assay; format: cell-based; conditions: Homo sapiens, MKN-45, 48 hours treatment
Description: as §1, §2

SNU668 = experiment: Proliferation inhibition, sulforhodamine B assay; format: cell-based; conditions: Homo sapiens, 48 hours treatment
Description: as §1, §2

[5] = tested on: stomach cancer cell lines (MKN28, MKN45 and SNU668); experiment: ATP synthesis inhibition (Promega ATP assay kit); format: cell-based, Human; conditions: 0, 10 or 20 μM of gossypol, 48 hours
Description: ATP (adenosine triphosphate) is an energy source for organisms, and inhibition of intracellular ATP synthesis leads to a decrease in energy metabolism activity. The ATP synthesis inhibitory effects of gossypol on the stomach cancer cell lines (MKN28, MKN45 and SNU668) described in Example 1-1 were examined.
Each of MKN28, MKN45 and SNU668 cell lines (1×10^3 to 1×10^4 cells/plate) was cultured in a 60 mm culture dish for 24 hours, treated with 0, 10 or 20 μM of gossypol, and then additionally cultured for 48 hours. Next, the cells were harvested, counted, diluted in 100 μl of RPMI buffer containing 10 vol % FBS, and then transferred to each well of 96-well plate. To each well containing the cells, 100 μl of assay buffer (rL/L reagent+reconstitution buffer) in the Promega ATP assay kit (G7572, Promega, […]., USA) was added, after which the emission of fluorescence was determined by measuring the absorbance at 560 nm.

[6] = tested on: MKN28 (moderately differentiated cells); experiment: Cell death, Annexin V+PI staining, FACS; format: cell-based, Human
Description: (§3) Each of MKN28 (moderately differentiated cells) and MKN45 (poorly differentiated cells) cell lines (1×10^3 to 1×10^4 cells/plate), described in Example 1-1 above, was cultured in a 100 mm culture dish for 24 hours, and treated with 0, 5, 10 or 20 μM of gossypol, and then diluted in 400 μl of binding buffer (0.1 M Hepes, pH 7.4, 1.4 M NaCl, and 25 mM CaCl2)). The control cells treated with 0 μM of gossypol were divided into four groups which were not stained, stained with Annexin V, stained with PI (propidium iodide) and stained with Annexin V+PI, respectively, and the cells treated with 5, 10 or 20 μM of gossypol were stained with Annexin V+PI. Staining of the cells was performed in a dark room for 10 minutes. The stained cells were subjected to fluorescence activated cell sorting (FACS), thereby determining the ratio of dead cells to total cells. The results are shown in FIGS. 3 and 4 (BD Biosciences, #556547).

[7] = tested on: MKN45 (poorly differentiated cells); experiment: Cell death, Annexin V+PI staining, FACS; format: cell-based, Human
Description: as §3

AGS [8] = experiment: Cell cycle analysis, PI staining, FACS; format: cell-based, Human; conditions: 10 μM gossypol, 24 hours
Description: (§4) Each of the 6 different stomach cancer cells lines (MKN28, MKN45, AGS, SNU668, Kato3 and HS746T) (1×10^3 to 1×10^4 cells/well), described in Example 1-1 above, was cultured in a 100 mm culture dish for 24 hours, and treated with 0 or 10 μM of gossypol, and then further cultured for 24 hours. The cells treated with gossypol were harvested, fixed with 70% ethanol, washed with cold 1×PBS, and then stained with PI+RNase solution (DPBS, pH 7.4) in a dark room for 30 minutes. The cells were subjected to fluorescence activated cell sorting (FACS), and the percentage of each cell cycle was analyzed based on the content of DNA.

HS746T [9] = experiment: Cell cycle analysis, PI staining, FACS; format: cell-based, Human; conditions: 10 μM gossypol, 24 hours
Description: as §4

MKN28 [10] = experiment: Cell cycle analysis, PI staining, FACS; format: cell-based, Human; conditions: 10 μM gossypol, 24 hours
Description: as §4

MKN45 [11] = experiment: Cell cycle analysis, PI staining, FACS; format: cell-based, Human; conditions: 10 μM gossypol, 24 hours
Description: as §4

MKN-1 = experiment: Proliferation inhibition of stomach cancer stem cells, sulforhodamine B assay; format: cell-based; conditions: Homo sapiens; MKN-1 stomach cancer stem cells; 48 hours; read-out: IC50 concentration
Description: (§5) First, in order to examine the growth inhibitory effect of gossypol against stomach cancer stem cells, two types of common stomach cancer cells (AGS and MKN-74) and two types of stomach cancer stem cells (MKN-1 and SNU-484) were prepared. Each type of cells was cultured in a 96-well plate at a density of 1×10^3 to 1×10^4 cells/well for 24 hours, and treated with 0, 10, 20, 40 or 60 μM of gossypol, and then further cultured for 48 hours. […] Based on the measured absorbance, the IC50 concentration of gossypol, at which the survival rate of each type of cells, is measured, and the results are shown in FIGS. 6 and 7.

SNU-484 = experiment: as above; format: cell-based; conditions: SNU-484 stomach cancer stem cells; 48 hours; read-out: IC50 concentration
Description: as §5

AGS [12] = experiment: Proliferation inhibition of common stomach cancer cells, sulforhodamine B assay; format: cell-based; conditions: Homo sapiens, 48 hours, read-out: IC50 concentration
Description: as §5

MKN-74 = experiment: as above; format: cell-based; conditions: Homo sapiens; MKN-74 common stomach cancer cells; 48 hours; read-out: IC50 concentration
Description: as §5

[13] = tested on: stomach cancer stem cells (MKN-1 and SNU-484); experiment: Proliferation inhibition, average over stomach cancer stem cells; format: cell-based; conditions: average of MKN-1 and SNU-484; read-out: IC50 concentration, average
Description: as §5

[14] = tested on: common stomach cancer cells (MKN-74 and AGS); experiment: Proliferation inhibition, average over common stomach cancer cells; format: cell-based; conditions: Homo sapiens; average of MKN-74 and AGS; read-out: IC50 concentration, average
Description: as §5

PAGS (parental AGS) = experiment: Proliferation inhibition, parental AGS cells; format: cell-based; conditions: Homo sapiens, read-out: IC50 concentration
Description: as §5
(§6) On selected AGS cells (hereinafter referred to as SAGS (selected AGS), Cell Death Dis. 2015 Jul. 2; 6:e1805) selected from the common stomach cancer cell line AGS (hereinafter referred to as PAGS (parental AGS)) by analyzing phenotypes, including the cancer stem cell marker expression, tumor spheroid formation and standard anticancer agent resistance of cancer cells that survived under 4 weeks of continuous metabolic stress, and tumor formation in immunosuppressed mice, the growth inhibitory effects of gossypol were examined. Cell culture and survival rate measurement methods were performed in the same manner as Example 2-1.

SAGS (selected AGS) = experiment: Proliferation inhibition, selected AGS cells with the nature of cancer stem cells; format: cell-based; conditions: Homo sapiens, read-out: IC50 concentration
Description: as §5, §6

With Cc1cc2c(C(C)C)c(O)c(O)c(C=O)c2c(O)c1-c1c(C)cc2c(C(C)C)c(O)c(O)c(C=O)c2c1O [gossypol] the GI50 (AGS [1]) was 6.43 µM, the GI50 (HS746T [2]) was 9.89 µM and the GI50 (Kato3) was 3.15 µM. The GI50 (MKN28 [3]) was 5.32 µM, the GI50 (MKN45 [4]) was 4.65 µM and the GI50 (SNU668) was 4.11 µM. For the same compound, the ATP synthesis [5] was “inhibited in proportion to the concentration of gossypol”, the cell death percentage ([6]; 5 μM gossypol) was 17.72% and the cell death percentage ([6]; 10 μM gossypol) was 28.85%. The cell death percentage ([6]; 20 μM gossypol) was 55.62%, the cell death percentage ([7]; 5 μM gossypol) was 45.75% and the cell death percentage ([7]; 10 μM gossypol) was 65.8%. The cell death percentage ([7]; 20 μM gossypol) was 82.22%, the “sum of sub G1 and GO/G1 compared to before treatment” value (from here on “sum … compared to before treatment”) (AGS [8]) was “increased” and the “sum … compared to before treatment” value (HS746T [9]) was “increased”. For the same compound, the “sum … compared to before treatment” value (MKN28 [10]) was “decreased”, the “sum … compared to before treatment” value (MKN45 [11]) was “increased” and the IC50 (MKN-1) was 2.6 µM. It also gave an IC50 (SNU-484) of 2.7 µM, an IC50 (AGS [12]) of 4.5 µM and an IC50 (MKN-74) of 5.6 µM. The IC50 [13] was 2.65 µM, the IC50 [14] was 5.05 µM and the IC50 (PAGS (parental AGS)) was 4.2 µM. The IC50 (SAGS (selected AGS)) was 2.8 µM.
